Experimental data published in patent US10752647B2, “N-phosphonoxymethyl prodrugs of hydroxyalkyl thiadiazole derivatives” (DAIICHI SANKYO COMPANY, LIMITED, priority 2017, dated 2020).
Converted amounts (≈) assume the structure as drawn. Like-named read-outs stand apart in the source and are kept apart here.

Columns and labels:
[1] = Solubility of parent compounds and prodrugs in phosphate buffer; assay type: physicochemical; conditions: aqueous buffer, thermodynamic from solid, 25° C., more than 4 weeks, pH 7.0
Protocol: Parent compounds: About 5 mg of parent compounds (biologically active forms of prodrugs) were added to 950 μL of phosphate buffer, and mixed vigorously for 1 hour at 25° C. Then, these samples were stored at 25° C. for more than 4 weeks and filtered to remove undissolved parent compounds. Next, these solutions were diluted with 50% aqueous acetonitrile solution. The resulting test solutions were assayed by HPLC. Prodrugs: About 30 mg of prodrugs were added to 120 μL of phosphate buffer, and mixed vigorously for 1 hour at 25° C. After shaking, pH of these solutions were adjusted at pH 7.0 by 1 mol/L NaOH solution. Then, the total volume were adjusted to 280 μL with purified water. Next, these solutions were stored at 25° C. for more than 4 weeks and filtered to remove undissolved compounds. These solutions were diluted with 50% aqueous acetonitrile solution. The resulting test solutions were assayed by HPLC.

[2] = Solubility in Japanese Pharmacopeia First Fluid (JP1) and Second Fluid (JP2); assay type: physicochemical; conditions: thermodynamic from solid, room temperature
Protocol: Method of Testing Solubility in Water and Neutral Buffer A 10 mmol/L solution of the test compound was prepared in DMSO and dispensed 100 μL of 10 mmol/L DMSO stock solutions into labeled glass tubes in duplicate, one for Japanese Pharmacopeia First Fluid (JP1) and second for Japanese Pharmacopeia Second Fluid (JP2). After evaporation of DMSO from each tube, 500 μL of JP1 and JP2 fluid were added in each tube, respectively. These tubes were sonicated for 1 minute and placed on shaker for 30 minutes with an interval of 30 seconds at every 5 minute. Tubes were placed in dark at room temperature for 1 hour and solution was filtered through membrane filter. The filtrate was diluted 2-fold and 10-fold. The resulting test solutions was analyzed and quantified against the standards using UPLC (standard preparation-10 mmol/L solution in DMSO is serially diluted with 50% aqueous acetonitrile solution to prepare 2 solutions; 100 μmol/L standard solution and 5 μmol/L standard solutions).

[3] = system: Clostridium difficile 2009155, a NAP1/027 strain; assay: Hamster CDI model; assay type: in vivo; conditions: 0.3 mg/kg/day for 5 days
Protocol: d) Method for Testing Therapeutic Effect of Compounds in Hamster CDI Model
The in vivo efficacy of Compound No. 1 was evaluated in a hamster CDI model caused by Clostridium difficile 2009155, a NAP1/027 strain. The Syrian hamsters (7-9 weeks old, National Centre for Laboratory Animal Sciences, National Institute Nutrition, Hyderabad, India.) were acclimatized at least 7 days prior the experiment. Hamsters primed with a single subcutaneous injection of clindamycin (30 mg/kg) 1 day prior to infection. Hamsters were infected by oral gavage with 1 mL of spore suspension (2-3×10^5) prepared in PBS. The test compounds were prepared using the 0.25 w/v % Methyl Cellulose Solution for oral administration and 10% HP ß-CD for SC administration and treatment was started 6 h post infection at an interval of 24 h for 5 days. Hamsters were administered a dose of 0.03-0.3 mg/kg/day for 5 days. The death and survival time of the hamsters treated with test compound administered group and non-treated group (vehicle-control) were recorded once daily for 35 days and were compared. A change in the survival time was used as an index of therapeutic effect.

[4] = parent compound, phosphate buffer
[5] = pH 1.2, simulated gastric fluid, Japanese Pharmacopeia First Fluid (JP1), read-out: Solubility JP1
[6] = pH 6.8, aqueous buffer, Japanese Pharmacopeia Second Fluid (JP2), read-out: Solubility JP2
[7] = prodrug, phosphate buffer adjusted with NaOH

| SMILES | solubility at 30 min [2, 5] | solubility at 30 min [2, 6] | solubility [1, 7] | also measured |
| --- | --- | --- | --- | --- |
| CCc1[nH]c(C(=O)N[C@@H]2CCN(c3nnc([C@](C)(O)CO)s3)C[C@@H]2OC)nc1Cl [Compound A, 4-chloro-N-[(3S,4R)-1-{5-[(2R)-1,2-dihydroxypropan-2-yl]-1,3,4-thiadiazol-2-yl}-3-methoxypiperidin-4-yl]-5-ethyl-1H-imidazole-2-carboxamide] |  |  |  | solubility [1, 4]: 0.775 mg/mL (≈ 1740 µM) |
| CCc1[nH]c(C(=O)N[C@@H]2CCN(c3nnc([C@@H](O)CO)s3)C[C@@H]2OC)nc1Cl [Compound B, 4-chloro-N-[(3S,4R)-1-{5-[(1S)-1,2-dihydroxyethyl]-1,3,4-thiadiazol-2-yl}-3-methoxypiperidin-4-yl]-5-ethyl-1H-imidazole-2-carboxamide] |  |  |  | solubility [1, 4]: 0.38 mg/mL (≈ 882 µM) |
| CCc1nc(C(=O)N[C@@H]2CCN(c3nnc(C(C)(C)O)s3)C[C@@H]2OC)n(COP(=O)(O)O)c1Cl [Compound No. 2, [5-Chloro-4-ethyl-2-({(3S,4R)-1-[5-(2-hydroxypropan-2-yl)-1,3,4-thiadiazol-2-yl]-3-methoxypiperidin-4-yl}carbamoyl)-1H-imidazol-1-yl]methyl dihydrogen phosphate] | > 1120 µg/mL | > 1100 µg/mL |  | Survival on day 35 [3]: 100% |
| CCc1nc(C(=O)N[C@@H]2CCN(c3nnc([C@H](C)O)s3)C[C@@H]2OC)n(COP(=O)(O)O)c1Cl [Compound No. 6, (5-Chloro-4-ethyl-2-{[(3S,4R)-1-{5-[(1S)-1-hydroxyethyl]-1,3,4-thiadiazol-2-yl}-3-methoxypiperidin-4-yl]carbamoyl}-1H-imidazol-1-yl)methyl dihydrogen phosphate] |  |  | 104 mg/mL |  |
| CCc1nc(C(=O)N[C@@H]2CCN(c3nnc([C@H](O)CO)s3)C[C@@H]2OC)n(COP(=O)(O)O)c1Cl [Compound No. 8, (5-Chloro-2-{[(3S,4R)-1-{5-[(1R)-1,2-dihydroxyethyl]-1,3,4-thiadiazol-2-yl}-3-methoxypiperidin-4-yl]carbamoyl}-4-ethyl-1H-imidazol-1-yl)methyl dihydrogen phosphate] |  |  | 102 mg/mL |  |
| CCc1nc(C(=O)N[C@@H]2CCN(c3nnc([C@@H](O)CO)s3)C[C@@H]2OC)n(COP(=O)(O)O)c1Cl [Compound No. 10, (5-Chloro-2-{[(3S,4R)-1-{5-[(1S)-1,2-dihydroxyethyl]-1,3,4-thiadiazol-2-yl}-3-methoxypiperidin-4-yl]carbamoyl}-4-ethyl-1H-imidazol-1-yl)methyl dihydrogen phosphate] |  |  | 105 mg/mL |  |

Second part, led by results:

| solubility at 30 min [2, 5] | solubility at 30 min [2, 6] | solubility [1, 7] | SMILES | also measured |
| --- | --- | --- | --- | --- |
| > 1350 µg/mL | > 1320 µg/mL | 107 mg/mL | CCc1c(Cl)nc(C(=O)N[C@@H]2CCN(c3nnc([C@](C)(O)CO)s3)C[C@@H]2OC)n1COP(=O)(O)O [Compound No. 3, (4-Chloro-2-{[(3S,4R)-1-{5-[(2R)-1,2-dihydroxypropan-2-yl]-1,3,4-thiadiazol-2-yl}-3-methoxypiperidin-4-yl]carbamoyl}-5-ethyl-1H-imidazol-1-yl)methyl dihydrogen phosphate] |  |
| > 1280 µg/mL | > 1510 µg/mL | 102 mg/mL | CCc1nc(C(=O)N[C@@H]2CCN(c3nnc([C@](C)(O)CO)s3)C[C@@H]2OC)n(COP(=O)(O)O)c1Cl [Compound No. 4, (5-Chloro-2-{[(3S,4R)-1-{5-[(2R)-1,2-dihydroxypropan-2-yl]-1,3,4-thiadiazol-2-yl}-3-methoxypiperidin-4-yl]carbamoyl}-4-ethyl-1H-imidazol-1-yl)methyl dihydrogen phosphate] |  |
|  |  | 101 mg/mL | CCc1c(Cl)nc(C(=O)N[C@@H]2CCN(c3nnc([C@H](C)O)s3)C[C@@H]2OC)n1COP(=O)(O)O [Compound No. 5, (4-Chloro-5-ethyl-2-{[(3S,4R)-1-{5-[(1S)-1-hydroxyethyl]-1,3,4-thiadiazol-2-yl}-3-methoxypiperidin-4-yl]carbamoyl}-1H-imidazol-1-yl)methyl dihydrogen phosphate] |  |
|  |  | 107 mg/mL | CCc1c(Cl)nc(C(=O)N[C@@H]2CCN(c3nnc([C@H](O)CO)s3)C[C@@H]2OC)n1COP(=O)(O)O [Compound No. 7, (4-Chloro-2-{[(3S,4R)-1-{5-[(1R)-1,2-dihydroxyethyl]-1,3,4-thiadiazol-2-yl}-3-methoxypiperidin-4-yl]carbamoyl}-5-ethyl-1H-imidazol-1-yl)methyl dihydrogen phosphate] |  |
